Active and inactive are the calls of the source. No cut-off for these calls is given here.
Columns and labels:
[1] = Half life in mouse at 20 mg/kg, po by LC-MS/MS analysis; assay type: ADME, organism-based; settings: in vivo
[2] = target: T1, Stimulator of interferon genes protein (Homo sapiens, UniProt Q86WV6); assay: Inhibition of STING activation in human THP1-Blue ISG cells assessed as decrease in cGAMP-induced IRF3 phosphorylation at 0.1 to 1 uM preincubated with compound for 6 hrs followed by cGAMP addition and measured after 3 hrs by Western blotting analysis; assay type: cell-based; settings: dose 0.1-1 µM, time 9.0 hrs
T1 sequence (Q86WV6 whole entry): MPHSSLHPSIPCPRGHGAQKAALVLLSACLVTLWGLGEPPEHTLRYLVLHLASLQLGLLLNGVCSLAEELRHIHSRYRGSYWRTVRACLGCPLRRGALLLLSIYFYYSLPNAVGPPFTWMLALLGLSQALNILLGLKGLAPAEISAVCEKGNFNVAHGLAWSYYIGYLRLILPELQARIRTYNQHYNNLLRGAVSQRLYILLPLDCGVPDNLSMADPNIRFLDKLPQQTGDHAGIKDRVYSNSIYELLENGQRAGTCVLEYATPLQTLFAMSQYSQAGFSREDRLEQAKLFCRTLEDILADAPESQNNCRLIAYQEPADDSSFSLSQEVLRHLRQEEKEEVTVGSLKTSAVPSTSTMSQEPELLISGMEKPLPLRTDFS

[3] = target: T1, Stimulator of interferon genes protein; assay: Inhibition of STING in human THP-1 cells assessed as inhibition of cGAMP-induced IFN-beta release at 0.05 to 0.5 uM pretreated with compound for 6 hrs followed by cGAMP addition and measured after 18 hrs by ELISA; assay type: cell-based; settings: dose 0.05-0.5 µM, time 24.0 hrs
[4] = target: T1, Stimulator of interferon genes protein; assay: Inhibition of STING activation in human THP1-Blue ISG cells assessed as inhibition of c-GAMP-induced STING oligomerization at 0.1 to 1 uM preincubated with compound for 6 hrs followed by cGAMP addition and measured after 3 hrs by Western blotting analysis; assay type: cell-based; settings: dose 0.1-1 µM, time 9.0 hrs
[5] = tested on: Stimulator of interferon genes protein (Homo sapiens), Q86WV6 [UNDEFINED MUTATION]; assay: Induction of STING M155 mutant degradation in human THP-1 cells at 0.5 uM preincubated with rapamycin for 2 hrs followed by compound addition and measured after 14 hrs by Western blotting analysis; assay type: cell-based
Stimulator of interferon genes protein (Homo sapiens), Q86WV6 [UNDEFINED MUTATION], sequence (Q86WV6 whole entry, looked up, change not shown): as the sequence (Q86WV6 whole entry) above

[6] = target: T2, Stimulator of interferon genes protein (Mus musculus) (UniProt Q3TBT3); assay: Inhibition of STING in mouse BMDM cells assessed as inhibition of cGAMP-induced IFN-beta release at 0.05 to 0.5 uM pretreated with compound for 6 hrs followed by cGAMP addition and measured after 18 hrs by ELISA; assay type: cell-based; settings: dose 0.05-0.5 µM, time 24.0 hrs
T2 sequence (whole entry): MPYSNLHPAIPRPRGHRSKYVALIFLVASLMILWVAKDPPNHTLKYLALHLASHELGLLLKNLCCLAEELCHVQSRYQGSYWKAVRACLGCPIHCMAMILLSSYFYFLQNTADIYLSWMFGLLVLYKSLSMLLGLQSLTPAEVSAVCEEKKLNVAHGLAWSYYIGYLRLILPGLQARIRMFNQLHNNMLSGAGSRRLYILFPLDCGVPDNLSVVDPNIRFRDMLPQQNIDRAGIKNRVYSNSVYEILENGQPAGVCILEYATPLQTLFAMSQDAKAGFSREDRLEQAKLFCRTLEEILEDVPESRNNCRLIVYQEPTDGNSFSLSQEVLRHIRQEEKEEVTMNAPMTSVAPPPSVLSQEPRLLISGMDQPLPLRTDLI

[7] = target: T2, Stimulator of interferon genes protein (Mus musculus); assay: In vivo inhibition of cGAMP-induced STING activation in autoimmune disease female C57BL/6 mouse model assessed as decrease in cGAMP-induced serum CXCL-10 level at 20 mg/kg, po pretreated with compound for 2 hrs followed by cGAMP addition and measured after 3 hrs by ELISA; assay type: functional, organism-based
[8] = Metabolic stability in mouse plasma assessed as half life in presence of NADPH by LC-MS/MS analysis; assay type: ADME, cell-free
[9] = Metabolic stability in mouse liver microsomes assessed as half life at 10 uM in presence of NADPH by LC-MS/MS analysis; assay type: ADME, Microsome
[10] = target: T1, Stimulator of interferon genes protein; assay: Inhibition of STING activation in human THP1-Blue ISG cells assessed as reduction in STING dimer level at 0.1 to 1 uM incubated for 9 hrs by Western blotting analysis; assay type: cell-based; settings: dose 0.1-1 µM
[11] = Metabolic stability in human liver microsomes assessed as half life at 10 uM in presence of NADPH by LC-MS/MS analysis; assay type: ADME, Microsome
[12] = Cmax in mouse at 20 mg/kg, po by LC-MS/MS analysis; assay type: ADME, organism-based; settings: in vivo, po, 20 mg/kg
[13] = AUC in mouse at 20 mg/kg, po by LC-MS/MS analysis; assay type: ADME, organism-based; settings: in vivo
[14] = Metabolic stability in human plasma assessed as half life in presence of NADPH by LC-MS/MS analysis; assay type: ADME, cell-free
[15] = tested on: Stimulator of interferon genes protein (Homo sapiens), Q86WV6 [UNDEFINED MUTATION]; assay: Induction of STING M155 mutant degradation in human THP-1 cells at 1 uM preincubated with Baf A1 for 2 hrs followed by compound addition and measured after 22 hrs by Western blotting analysis; assay type: cell-based
[16] = tested on: Stimulator of interferon genes protein (Homo sapiens), Q86WV6 [UNDEFINED MUTATION]; assay: Induction of STING M155 mutant degradation in human THP-1 cells at 1 uM preincubated with MG132 for 2 hrs followed by compound addition and measured after 22 hrs by Western blotting analysis; assay type: cell-based

For COc1ccc2c(c1)C(=O)N(c1ccc(C(C)(C)C)c(F)c1)C(c1cc3cc(-c4ccc(C(=O)Nc5ccc(O)c(NS(C)(=O)=O)c5)cc4)ccc3o1)C2C(N)=O (configuration not stated), the half-life [1] was 3.3 h, the inhibition [2] was “Active” and the inhibition [3] was “Active”. The inhibition [4] was “Active”, the Activity [5] was “Active” and the inhibition [6] was “Active”. The inhibition [7] was “Active”, the half-life [8] was > 4 h and the half-life at 10 µM [9] was > 1 h. For the same compound, the inhibition [10] was “Active”, the half-life at 10 µM [11] was > 1 h and the Cmax [12] was 293 ng/mL. The Cmax ([12]; read-out: Cmax) was 200 nM, the AUC [13] was 2020 ng·h/mL and the half-life [14] was > 4 h. The Activity [15] was “inactive” and the Activity [16] was “Active”.
